Assay in all cases: D-[3H]-serine transport in HRPE cells transfected with transporter cDNA
Type in all cases: cell-based
Settings in all cases: D-[3H]-serine 5 μM

The target of one assay is T1, ATA3 (Homo sapiens, UniProt Q969I6).
T1 construct: expressed in transfected cells; host or cells: HRPE cells
T1 sequence (Q969I6 1-547): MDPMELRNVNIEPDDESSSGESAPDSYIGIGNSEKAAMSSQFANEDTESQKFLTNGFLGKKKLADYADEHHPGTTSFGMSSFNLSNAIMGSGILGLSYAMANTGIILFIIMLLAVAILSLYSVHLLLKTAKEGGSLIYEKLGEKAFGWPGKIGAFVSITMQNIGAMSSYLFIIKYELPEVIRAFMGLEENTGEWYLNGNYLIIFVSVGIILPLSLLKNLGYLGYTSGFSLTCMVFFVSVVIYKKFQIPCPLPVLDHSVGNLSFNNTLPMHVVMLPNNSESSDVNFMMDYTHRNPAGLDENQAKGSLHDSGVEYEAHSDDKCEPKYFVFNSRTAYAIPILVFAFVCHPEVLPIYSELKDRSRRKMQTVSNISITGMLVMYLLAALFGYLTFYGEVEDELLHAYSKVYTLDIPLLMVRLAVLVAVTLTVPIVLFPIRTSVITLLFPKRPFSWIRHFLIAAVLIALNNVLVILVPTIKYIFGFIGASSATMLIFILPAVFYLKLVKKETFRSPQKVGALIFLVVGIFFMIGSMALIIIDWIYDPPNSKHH
Here is the method:
(§1) Transport of D-[^3H]-serine (5 μM) was measured in HRPE cells transfected with cDNA of each transporter.
(§2) The present inventors evaluated the function of 10 different amino acid transporter clones with respect to transport of D-serine in heterologous expression systems (FIG. 11). All of these transporters are expressed in the intestinal tract. The list of the transporters tested include three energy-independent, heterodimeric facilitative transporters (L1, L2, and b^0,+), three subtypes of the Na^+-coupled system A (ATA1, ATA2, and ATA3), two subtypes of the Na^+- and H^+-coupled system N (SN1 and SN2), the Na^+-coupled system ATB^0, and the Na^+- and Cl^−-coupled system ATB^0,+. […] The ability to transport D-serine was the highest for the Na^+- and Cl^−-coupled transporter ATB^0,+. ATB^0,+ belongs to the gene family of neurotransmitter transporters whose transport function is energized by multiple driving forces, namely a Na^+ gradient, a Cl^− gradient, and membrane potential. […] Based on the energetics of these two transport systems, ATB^0,+ is expected to play the leading role in this process.

Another assay concerns the target T2, b^0,+ (b^0,+AT/4F2hc) (Mus musculus, UniProt Q9QXA6).
T2 construct: expressed in transfected cells; host or cells: HRPE cells
T2 sequence (Q9QXA6 1-487): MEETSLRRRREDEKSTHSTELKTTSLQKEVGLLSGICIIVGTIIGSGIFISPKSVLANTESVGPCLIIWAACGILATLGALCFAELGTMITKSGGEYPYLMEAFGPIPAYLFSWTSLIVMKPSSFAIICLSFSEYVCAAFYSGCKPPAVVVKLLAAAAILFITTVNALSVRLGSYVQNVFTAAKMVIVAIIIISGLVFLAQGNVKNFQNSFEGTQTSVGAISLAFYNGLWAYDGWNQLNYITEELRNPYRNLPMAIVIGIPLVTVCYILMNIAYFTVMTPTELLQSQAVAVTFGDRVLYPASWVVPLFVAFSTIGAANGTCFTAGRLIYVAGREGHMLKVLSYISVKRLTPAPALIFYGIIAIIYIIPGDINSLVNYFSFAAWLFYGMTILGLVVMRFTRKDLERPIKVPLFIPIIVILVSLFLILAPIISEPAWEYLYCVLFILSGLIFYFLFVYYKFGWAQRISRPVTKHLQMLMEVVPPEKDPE
Here is the method: as §1, §2

In another assay the target is T3, ATA1 (Homo sapiens, UniProt Q9H2H9).
T3 construct: expressed in transfected cells; host or cells: HRPE cells
T3 sequence (Q9H2H9 1-487): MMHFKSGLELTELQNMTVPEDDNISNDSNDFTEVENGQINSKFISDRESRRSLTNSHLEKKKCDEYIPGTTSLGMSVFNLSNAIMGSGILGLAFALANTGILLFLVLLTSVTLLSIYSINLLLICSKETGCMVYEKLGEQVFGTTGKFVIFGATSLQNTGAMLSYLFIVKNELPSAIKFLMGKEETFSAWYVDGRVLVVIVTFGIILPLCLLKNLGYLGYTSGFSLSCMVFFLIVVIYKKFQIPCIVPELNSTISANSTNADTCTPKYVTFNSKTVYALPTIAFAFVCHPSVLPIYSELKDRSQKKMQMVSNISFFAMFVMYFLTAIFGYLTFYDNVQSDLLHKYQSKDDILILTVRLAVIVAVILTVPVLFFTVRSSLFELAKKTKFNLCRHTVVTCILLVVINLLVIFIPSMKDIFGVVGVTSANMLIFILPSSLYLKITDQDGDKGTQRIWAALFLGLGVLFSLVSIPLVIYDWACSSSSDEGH
Here is the method: as §1, §2

Regarding `N[C@H](CO)C(=O)O` [D-Serine, D-serine], the D-serine transport result on ATA3 is “did not”; on b^0,+ (b^0,+AT/4F2hc) it was “significant ability to transport”; on ATA1, “showed D-serine transport activity”.

These data come from US20040142317A1, “Use of amino acid transporter atbo,+ as a delivery system for drugs and prodrugs” (priority 2003, published 2004).
